The values that follow come from PMC4113814, “Bioactive Cembrane Derivatives from the Indian Ocean Soft Coral, Sinularia kavarattiensis” (Marine Drugs, 2014).

For orientation: IC50 means the concentration that inhibits the measured activity by half.

≈ marks a conversion by molar mass, not a printed value. A value given as a limit tells only on which side of the number the result lay.

Holding throughout (type): cell-based, Wistar rats
Data set [1] has as its system IL-10. Description: IL-10 release in supernatants of LPS-treated primary microglial cells (ELISA). As to conditions: 72 h; for IL-10 release: LPS-treated; for IC50: Rattus norvegicus, inhibition of LPS-induced cytokine release, read-out: IL-10 IC50. As to the method:
(§1) Primary microglial cell cultures were prepared from brains of newborn Wistar rats. Ethics approval for the experiments was granted by the EBIOTEC Review Board (Valter Lombardi, Iván Carrera and Lucía Fernández-Novoa; Project Identification Code: Sinularia Project October 2013; approved 30 October 2013). The neocortex of one-day-old postnatal rats was aseptically dissected out, and the meninges and blood vessels were carefully removed. Following cutting in a medium containing 20% horse serum, the suspension was filtered through a […] and transferred as a single cell suspension to culture dishes, using 5.0 mL of medium per dish. The cultures were incubated at 37 °C in an atmosphere containing 5% CO2. The culture medium consisted of Minimum Essential Medium Eagle, supplemented with L-glutamine, amino acids, vitamins, penicillin, gentamicin, sodium bicarbonate and 20% heat-inactivated horse serum. The medium was changed twice a week. After 1 week, the concentration of horse serum was reduced to 10%. After sixteen days in culture, cells were treated with 1 μg/mL of lipopolysaccharide (LPS). […] Positive controls were treated only with LPS, while negative controls were treated with complete medium. After 72 h of incubation, cells were counted, and 2.5 mL of the supernatants were collected from each well and frozen at −40 °C for cytokine analyses. All experiments were carried out twice.
(§2) The supernatants obtained from cell cultures were analyzed for TNF-α, IL-1β, IL-4, IL-6, IL-8, IL-10 and IL-18 using commercially available ELISA kits following the manufacturers’ instructions. All samples were assayed in duplicate, and equivocal results were repeated. The cytokine concentration was calculated from a standard curve of the corresponding recombinant cytokine.
(§3) The cytotoxicity of the compounds was measured by the colorimetric methyl thiazol tetrazolium (MTT) assay and scored as a percentage of the absorbance reduction of treated cultures versus untreated control cultures. Primary microglial cell cultures were seeded into 96-well microplates at 10^4 cells per well and allowed to grow for 24 h. […] The compounds were serially diluted in complete culture medium with two-fold dilutions (100, 50, 25, 12.5, 6.25, 3.12 and 1.56 μg/mL for in vitro cytotoxicity; 12.5, 6.25, 3.12, 1.56, 0.78 and 0.39 μg/mL for cytokine release). Different concentrations of the compounds were added to each well, and Tamoxifen was used as a positive control, with concentrations ranging from 50 to 1.56 μg/mL. Plates were incubated at 37 °C for 72 h under 5% CO2 atmosphere. Then, the 50 μL of MTT-PBS solution in culture medium were added to each well. The plates were further incubated for 4 h under the same conditions. The medium was then removed and replaced with 200 μL of DMSO to solubilize the MTT formazan product. The solutions were shaken for 20 min, and the absorbance was measured at 570 nm. […] Each value represents the mean of triplicate determinations. The IC50 values were calculated from the compound concentration-response curves.
A general note: In an ELISA, binding on a coated surface is turned into a signal by an enzyme label.

In data set [2] the test system is IL-8. Description: IL-8 release in supernatants of LPS-treated primary microglial cells (ELISA). As to conditions: 72 h; for IL-8 release: LPS-treated; for IC50: Rattus norvegicus, inhibition of LPS-induced cytokine release, read-out: IL-8 IC50. As to the method: as §1, §2, §3
Data set [3] has as its system IL-1β. Briefly: IL-1β release in supernatants of LPS-treated primary microglial cells (ELISA). The following applies: 72 h; for IL-1β release: LPS-treated; for IC50: Rattus norvegicus, inhibition of LPS-induced cytokine release, read-out: IL-1β IC50. How it is done: as §1, §2, §3
Data set [4] is described as follows: MTT cytotoxicity assay on primary microglial cell cultures. As to conditions: Wistar, rat, mean of triplicate. How it is done: Primary microglial cell cultures were prepared from brains of newborn Wistar rats. Ethics approval for the experiments was granted by the EBIOTEC Review Board (Valter Lombardi, Iván Carrera and Lucía Fernández-Novoa; Project Identification Code: Sinularia Project October 2013; approved 30 October 2013). The neocortex of one-day-old postnatal rats was aseptically dissected out, and the meninges and blood vessels were carefully removed. Following cutting in a medium containing 20% horse serum, the suspension was filtered through a […] and transferred as a single cell suspension to culture dishes, using 5.0 mL of medium per dish. The cultures were incubated at 37 °C in an atmosphere containing 5% CO2. The culture medium consisted of Minimum Essential Medium Eagle, supplemented with L-glutamine, amino acids, vitamins, penicillin, gentamicin, sodium bicarbonate and 20% heat-inactivated horse serum. The medium was changed twice a week. After 1 week, the concentration of horse serum was reduced to 10%. After sixteen days in culture, cells were treated with 1 μg/mL of lipopolysaccharide (LPS). After six hours, different concentrations (1.0 μg/mL, 2.5 μg/mL and 5.0 μg/mL) of Compounds 1–4 and 6 were added to each well, and plates were incubated for 72 h at 37 °C in an atmosphere containing 5% CO2. Positive controls were treated only with LPS, while negative controls were treated with complete medium. After 72 h of incubation, cells were counted, and 2.5 mL of the supernatants were collected from each well and frozen at −40 °C for cytokine analyses. All experiments were carried out twice.
The cytotoxicity of the compounds was measured by the colorimetric methyl thiazol tetrazolium (MTT) assay and scored as a percentage of the absorbance reduction of treated cultures versus untreated control cultures. Primary microglial cell cultures were seeded into 96-well microplates at 10^4 cells per well and allowed to grow for 24 h. The initial concentration of Compounds 1–4 and 6 was 100 μg/mL in DMSO. The compounds were serially diluted in complete culture medium with two-fold dilutions (100, 50, 25, 12.5, 6.25, 3.12 and 1.56 μg/mL for in vitro cytotoxicity; 12.5, 6.25, 3.12, 1.56, 0.78 and 0.39 μg/mL for cytokine release). Different concentrations of the compounds were added to each well, and Tamoxifen was used as a positive control, with concentrations ranging from 50 to 1.56 μg/mL. Plates were incubated at 37 °C for 72 h under 5% CO2 atmosphere. Then, the 50 μL of MTT-PBS solution in culture medium were added to each well. The plates were further incubated for 4 h under the same conditions. The medium was then removed and replaced with 200 μL of DMSO to solubilize the MTT formazan product. The solutions were shaken for 20 min, and the absorbance was measured at 570 nm. […] Each value represents the mean of triplicate determinations. The IC50 values were calculated from the compound concentration-response curves.
For orientation: Tetrazolium assays rely on reduction of a dye to a coloured formazan, in cell work by metabolically active cells.

Turning to `C=C(C)[C@@H]1CC(=O)[C@H]2[C@H](C1)[C@@H]1C(=O)O[C@@H]3C[C@@]4(C)O[C@H]2C(=O)[C@@H]4[C@H]13` [Compound 6, ineleganolide], the IL-10 release in data set [1] (C1: 1.0 μg/mL) came to 8.5 ± 3.2 pg/mL; in data set [1] (C2: 2.5 μg/mL), 7.8 ± 2.2 pg/mL; in data set [1] (C3: 5.0 μg/mL) it was 7.5 ± 2.1 pg/mL. The IC50 in data set [1], in data set [2] and in data set [3] was over 12.5 µg/mL throughout. The IL-8 release in data set [2] (C1: 1.0 μg/mL), in data set [2] (C2: 2.5 μg/mL) and in data set [2] (C3: 5.0 μg/mL) was 247 ± 8 pg/mL in each case. The IL-1β release in data set [3] (C1: 1.0 μg/mL) was 1.07 ± 0.07 pg/mL; in data set [3] (C2: 2.5 μg/mL), 1.1 ± 0.05 pg/mL; in data set [3] (C3: 5.0 μg/mL) it was 1.09 ± 0.02 pg/mL. The compound also showed an IC50 at 72 h in data set [4] of over 100 µg/mL.

Turning to `C=C(C)C1CCC23OC2C(CC2(C)CC(=O)C(CC(=O)C1)O2)OC3=O` (stereo not shown) [Compound 3, scabrolide D], the IL-10 release in data set [1] (C1: 1.0 μg/mL) turned out to be 7.5 ± 1.4 pg/mL; in data set [1] (C2: 2.5 μg/mL), 6.8 ± 1.5 pg/mL; in data set [1] (C3: 5.0 μg/mL), 6.9 ± 1.5 pg/mL. The IC50 in data set [1], in data set [2] and in data set [3] was over 12.5 µg/mL throughout. For the same compound, the IL-8 release is recorded as 247 ± 8 pg/mL in data set [2] (C1: 1.0 μg/mL), 237 ± 4 pg/mL in data set [2] (C2: 2.5 μg/mL) and 244 ± 11 pg/mL in data set [2] (C3: 5.0 μg/mL). Further, the IL-1β release is given as 1.1 ± 0.05 pg/mL in data set [3] (C1: 1.0 μg/mL), 1.3 ± 0.06 pg/mL in data set [3] (C2: 2.5 μg/mL) and 1.2 ± 0.05 pg/mL in data set [3] (C3: 5.0 μg/mL). Moreover, in data set [4], the IC50 at 72 h was over 100 µg/mL.

With `C=C(C)[C@@H]1C/C=C2\C(=O)O[C@@H](C[C@]3(C)CC(=O)[C@@H](CC(=O)C1)O3)[C@@H]2O` [Compound 2, sinuleptolide], the IL-10 release in data set [1] (C1: 1.0 μg/mL) is on record as 7.9 ± 3.4 pg/mL; in data set [1] (C2: 2.5 μg/mL) it was 17.4 ± 2.3 pg/mL; in data set [1] (C3: 5.0 μg/mL), 18.5 ± 1.9 pg/mL. Moreover, the IC50 is 0.5 µg/mL (≈ 1.44 µM) in data set [1], 2.3 µg/mL (≈ 6.6 µM) in data set [2] and 0.5 µg/mL (≈ 1.44 µM) in data set [3]. Further, the IL-8 release in data set [2] (C1: 1.0 μg/mL) was 249 ± 13 pg/mL; in data set [2] (C2: 2.5 μg/mL), 123 ± 11 pg/mL; in data set [2] (C3: 5.0 μg/mL), 108 ± 9 pg/mL. Further, the values for the IL-1β release in data set [3] (C1: 1.0 μg/mL), in data set [3] (C2: 2.5 μg/mL) and in data set [3] (C3: 5.0 μg/mL) were 1.08 ± 0.02 pg/mL, 0.07 ± 0.04 pg/mL and 0.08 ± 0.06 pg/mL, respectively. In addition, the half-maximal inhibitory concentration (IC50) at 72 h in data set [4] was over 100 µg/mL.

Turning to `C=C(C)[C@@H]1C/C=C2\C(=O)O[C@@H](C[C@]3(C)CC(=O)[C@H](CC(=O)C1)O3)[C@@H]2O` [Compound 1, 5-epi-sinuleptolide], the figures for the IL-10 release in data set [1] (C1: 1.0 μg/mL), in data set [1] (C2: 2.5 μg/mL) and in data set [1] (C3: 5.0 μg/mL) were 7.6 ± 1.6 pg/mL, 8.2 ± 1.8 pg/mL and 8.7 ± 2.1 pg/mL, respectively. Further, the IC50 in data set [1], in data set [2] and in data set [3] was over 12.5 µg/mL throughout. Further, the values for the IL-8 release in data set [2] (C1: 1.0 μg/mL), in data set [2] (C2: 2.5 μg/mL) and in data set [2] (C3: 5.0 μg/mL) were 256 ± 12 pg/mL, 239 ± 5 pg/mL and 241 ± 7 pg/mL, respectively. The IL-1β release was found to be 1.04 ± 0.08 pg/mL in data set [3] (C1: 1.0 μg/mL), 1.09 ± 0.1 pg/mL in data set [3] (C2: 2.5 μg/mL) and 1.08 ± 0.05 pg/mL in data set [3] (C3: 5.0 μg/mL). The compound also had an IC50 at 72 h in data set [4] of over 100 µg/mL.
